The source of these data is patent publication US20240307363A1, “METHODS FOR TREATING A PULMONARY DISEASE WITH AN ALK-5 (TGF BETA R1) INHIBITOR” (Thirona Bio, Inc., priority 2021, published 2024).

The test system of data set [1] is luc-CT26 tumor outgrowth in the lungs. The data set can be described thus: Efficacy study in a syngeneic lung cancer model (luc-CT26 cells i.v., lung bioluminescence). Conditions: BALB/c mice. The format is in vivo. Here is the method: Compound 3 may be used to suppress tumor growth in the lungs of a syngeneic cancer model when administered alone or in combination with an immunotherapeutic agent. Six- to eight-week old BALB/c mice are used for in vivo efficacy studies in accordance with IACUC guidelines. Firefly luciferase-expressing CT-26 mouse colon carcinoma cells (luc-CT26, CSC-RR0237, Creative Biogene, Shirley, NY, USA) are grown at 37° C. in a 5% CO2 humidified atmosphere in Dulbecco's Modified Eagle's Medium (D6429, Dominique Dutscher, Brumath, France) supplemented with 10% foetal bovine serum (500105NIDD, Dominique Dutscher), 0.2% glucose (19002-013, Gibco, Thermo Fisher Scientific, Hampton, NH, USA), 2 mM L-[…], Dominique Dutscher), 100 U/ml penicillin and 100 μg/ml streptomycin (15140155, Gibco, Thermo Fisher Scientific). Cell suspensions are prepared by enzymatic treatment with trypsin-EDTA (11560626, Thermo Fisher Scientific). Luc-CT26 cells (2×10^5 cells/mouse) are injected intravenously into BALB/c mice to generate the cancer model in which tumor outgrowth in the lungs is observed. Following injection of CT26 cells and starting on day 6, the mice are monitored 3 times a week (i.e., day 6, day 8, day 11, day 13, etc.) using an IVIS spectrum imaging system (Caliper, PerkinElmer) after ip injection of D-luciferin. […] Body weight is measured twice weekly.

Data set [2] concerns bleomycin-induced lung fibrosis. The data set can be described thus: Efficacy study in bleomycin lung fibrosis model. The format is in vivo. As to conditions: mice. Here is the method: Compound 3 may be used to prevent and reverse lung fibrosis and improve lung function and exercise capacity. Male C57BL6/J mice (7-9 weeks old) from the Jackson Laboratory (Bar Harbor, ME), are used for efficacy studies. […] Bleomycin (1-5 U/kg) in […] is intratracheally sprayed into mice lightly anaesthetized with isoflurane (5% in 100%02). Control animals receives […] of 0.9% saline. […] Animals are treated until the end of the study (day 21 post-bleomycin administration). Lung Function and Exercise Capacity: Invasive lung function measurements are taken at specified time points following bleomycin. Mice are anesthetized with 2.5 mg sodium pentobarbital (Abbott Labs, IL), and the trachea cannulated. Animals are mechanically ventilated using a computer-controlled piston ventilator (flexiVent, SCIREQ Inc., Montreal, Canada: tidal volume=10 ml/kg, respiratory rate of 150 breaths/min, 3 cmH2O positive end-expiratory pressure). To test exercise capacity animals are placed on a treadmill at a 5% incline at a speed to 10 m/minute and the speed increased 1 m/minute every 4 minutes of the test until exhausted. Baseline exercise capacity for each mouse is assessed 2 days prior to either saline or bleomycin administration and then once weekly after administration at days 6, 12, and 19 post-instillation. Bronchoalveolar Lavage Cell Assessment: Immediately following lung function measurements, mice are exsanguinated, bronchoalveolar lavage fluid (BALF) is collected, and total and differential cell counts are performed. […] Samples are mixed and centrifuged before injection for LC/MS/MS analysis. LC/MS/MS analysis is conducted by gradient HPLC with selective reaction monitoring (SRM). The calibration range was 40-2,000 ng/ml. The LC/MS/MS system used for the analysis consisted of an AB-Sciex API4000 with an electrospray source connected to an Agilent 1200 pump, a Waters 2777 autosampler, and an Agilent 1100 series column oven. Chromatographic analysis is conducted by HILIC HPLC with an Ascentis Express HILIC ([…], 2.7 um) column. The SRM transition is m/z 132 to m/z 41. Histology: After performing lung function measurements, whole lungs (that are not subject to bronchoalveolar lavage) are inflated under 25 cm H2O pressure with 10% neutral buffered formalin through the tracheal cannula and immersed in formalin for at least 24 h. After being processed into paraffin blocks, the lungs are sectioned ([…]) and stained with either hematoxylin and cosin (H&E) or immunolabeled with an anti-collagen I antibody (rabbit polyclonal, Genetex Inc., Irvine, CA), to assess fibrotic changes in the lungs. To determine the fibrosis histopathology score for the lung of each mouse, the entire left and right longitudinal lung sections (at the level of tracheal bifurcation) are scored separately at 100× magnification and the scores were combined (total score range 0-8). Grading criteria are as follows: Grade 0=no apparent fibrosis; Grade 1=minimal fibrosis with rare foci of mostly interstitial alveolar septal fibrosis affecting less than 5% of the entire lung section; Grade 2=mild fibrosis characterized by multiple foci with thickening of alveolar septa by fibrosis and progressing to regions with fibrous deposition within the alveolar spaces with some damage to the alveoli, affecting 5-25% of the entire lung section; Grade 3=moderate fibrosis with multiple or single coalescing large areas of fibrosis effacing the alveoli with definitive damage to pulmonary architecture, affecting 25-50% of the entire lung section; Grade 4=marked fibrosis with severe distortion of pulmonary parenchyma by large contiguous fibrous areas, affecting 50-75% of the entire lung section. For collagen I IHC quantification, glass slides are scanned at 20× using a Zeiss Mirax scanner (Carl Zeiss Microimaging. Thornwood, NY), and digital slides generated were analyzed using Definiens Tissue Studio software (Definiens, Munich, Germany). […]

Data set [3] in a line: Intrinsic clearance in human liver microsomes. In kind it is in vitro ADME. Conditions: pH 7.4, 0.1 μM test compound, 0.1 mg/mL protein, 1 mM NADPH. Here is the method:
Assay methods that evaluate the intrinsic clearance (CLINT) in human liver microsomes (HLMs) have been described in the art (Drug Metab. Dispos., (2005), 33(9), 1304-1311 BMC Pulmonary Medicine (2018), 18(63), 1-13). Representative compounds are tested as follows for their intrinsic clearance (CLINT) in human liver microsomes as follows.
A […] microsomal incubation cofactor solution was prepared with 100 mM potassium phosphate buffered to pH 7.4 (BD Biosciences, Woburn, Mass.) supplemented with 2 mM NADPH (Sigma-Aldrich, St. Louis, Mo.). 10 mM DMSO stocks of test compound are diluted and spiked into the cofactor solution to yield a 0.2 μM concentration (0.02% v/v DMSO). Aliquots of frozen human liver microsomes (Bioreclamation IVT, Baltimore Md.) are thawed and diluted into 100 mM potassium phosphate buffer to yield microsomal protein concentrations of 0.2 mg/mL. Cofactor/drug and microsomal solutions are pre-warmed separately for 4 minutes in a water bath held at 37° C. Incubations (n=1) are started by the combination of equal volumes of cofactor/drug solution with microsomal solution. The final concentration of test compound is 0.1 μM with a final […] protein concentration of 0.1 mg/mL and final NADPH concentration of 1 mM. […] Samples are then injected onto an AB Sciex API 4000 triple quadrupole mass spectrometer for quantitation by LC-MS/MS. […]
(Liver microsomes are a subcellular fraction often used to study metabolism.)

Another data set has as its target ALK5 (Homo sapiens (Human), UniProt P36897). Description: In vitro screen for ALK5 kinase inhibition (ALK5 phosphorylation of α-Casein, filter-plate radiometric). In kind it is biochemical. Conditions: ALK5 protein 2 nM final, α-Casein substrate; mean of two or more IC50 values.
For data set [4] the following is noted: rats, chronic (>3 months) administration; cited from earlier work.
For data set [5] the following is noted: dogs, chronic (>3 months) administration; cited from earlier work.
The conditions of data set [6]: rats; cited from earlier work.
For another data set, the system named is heart valves. Conditions: preclinical animal model; all heart valves at all doses tested; cited from earlier work.
For a further data set, the system named is bleomycin model. As to conditions: cited from earlier work.
Data set [7] has as its system bleomycin-induced pulmonary fibrosis. As to conditions: bleomycin-challenged rats, cited from earlier work.
For data set [8] the following is noted: cited from earlier work.
The conditions of data set [9]: cynomolgus monkey, in vivo; cited from earlier work.

Read-outs that look alike come from different tables or passages of the source.

Chain of ALK5 (P36897 34-503, species assumed): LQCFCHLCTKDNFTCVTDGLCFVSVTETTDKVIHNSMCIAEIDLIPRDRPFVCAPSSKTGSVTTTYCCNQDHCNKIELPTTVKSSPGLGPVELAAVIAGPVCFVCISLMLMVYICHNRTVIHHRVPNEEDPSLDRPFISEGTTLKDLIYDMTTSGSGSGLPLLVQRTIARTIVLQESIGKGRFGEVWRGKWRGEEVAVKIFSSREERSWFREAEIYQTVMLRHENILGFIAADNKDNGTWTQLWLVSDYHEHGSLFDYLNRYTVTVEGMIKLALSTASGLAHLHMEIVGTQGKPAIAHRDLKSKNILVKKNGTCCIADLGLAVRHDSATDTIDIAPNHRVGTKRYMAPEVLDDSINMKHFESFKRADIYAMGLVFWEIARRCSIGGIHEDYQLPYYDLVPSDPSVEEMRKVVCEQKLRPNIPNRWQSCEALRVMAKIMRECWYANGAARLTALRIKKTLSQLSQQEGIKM
Protocol for ALK5: Representative compounds are tested as follows for inhibition of ALK5 autophosphorylation activity and of the ALK5 phosphorylation of α-Casein.
Representative compounds are screened using the assay procedure for ALK5 kinase activity as described below.
In a 96 well filter-bottom plate (Millipore, #MSDV N6B 50), 58 μL Assay Buffer is added to reach well. Add 10 μL of Cold ATP mix in Assay Buffer, then 10 μL of a 1:10 dilution of α-Casein stock. Then add 2 μL of compound being tested (DMSO) at a 50× final concentration. Hot ATP mix (10 μL) is added, and the reaction is started with the addition of 10 μL of a 1:350 dilution of the ALK5 protein (2 nM final) in Assay Buffer with 0.05% BSA (Bovine Serum Albumin). […] The reaction is then stopped with the addition of 100 μL of ice-cold 20% TCA (trichloroacetic acid). The assay is then incubated for at least 1 hour at 4° C., and then the contents of each well are filtered by suction through the filter. The wells are washed three times with 200 μL ice-cold 10% TCA. The plate bottom is blotted before and after removing plastic sub-base, and dried overnight at room temperature. Add 30 μL of scintillation fluid, and count 1 minute per well on a Wallac Tri-Lux scintillation counter.

Broadly, the CLint scaled is the rate of metabolic loss divided by the concentration. With `Cc1cccc(-n2ncc(C)c2-c2cc3cnccc3s2)n1` [Compound 3, 2-[4-methyl-1-(6-methylpyridin-2-yl)-1H-pyrazol-5-yl]thieno[3,2-c]pyridine], in [1] (Compound 3 alone, intranasal), the “bioluminescence intensity (BLI) in the lungs” value is “Statistically significant reduction”. In [1] (combination with an immunotherapeutic agent), the “efficacy as measured by reduction in BLI” value was “increased efficacy”. In data set [2] (4-hydroxyproline, intranasal), the HP content result is given as “significant reduced”. For the same compound, in data set [2] (dosed intranasally, prophylactic or therapeutic, until day 21), the bleomycin-induced lung fibrosis entry is “prevents and/or reverses”. In data set [2] (intranasal), the “collagen 1 assessed by IHC” value is listed as “reduced”, the “fibrosis histopathology scores in the lung” value is given as “improvements” and the lung function result is “significantly improved”. Further, the exercise capacity result in [2] (intranasal, treadmill) is “increased”. Besides, the CLint scaled at 0.1 μM in data set [3] was 11.9 L/h/kg.
Usually IC50 stands for the concentration that inhibits the measured activity by half. `CCc1cnn(-c2cccc(C)n2)c1-c1cc2cnccc2s1` [Compound 7] gave an IC50 against ALK5 of 4.33 nM.
As to `Cc1cccc(-c2nn3c(c2-c2ccnc4ccc(C(N)=O)cc24)CCC3)n1` [Compound 41, galunisertib], the organ toxicities entry in data set [4] and in data set [5] was “caused multiple organ toxicities” in each case.
Turning to `O=C(NC1CCOCC1)c1ccc(-c2cc(-c3c[nH]nc3-c3ccccn3)ccn2)cc1` [Compound 46], the physeal dysplasia entry in [6] was “induced physeal dysplasia”.
`c1ccc(-c2nc3c(c(-n4ccc5cnccc54)n2)CCC3)nc1` [Compound 47]: in the data set on heart valves, the heart valve lesions entry was “induced heart valve lesions”.
On to `Cc1ccc(Oc2ccnc(Nc3ccc(S(N)(=O)=O)cc3)c2)c(C)n1` [Compound 48], for which, in the data set on heart valves, the heart valve lesions result is “induced heart valve lesions”.
Turning to `Cc1cccc(-c2[nH]ncc2-c2ccc(F)c(-c3cnn(CCO)c3)c2)n1` [Compound R-268712], the antifibrotic efficacy entry in the data set with bleomycin model is “strong antifibrotic efficacy”.
Take `Cc1cccc(-c2[nH]c(C(C)(C)C)nc2-c2ccc3nccnc3c2)n1` [SB-525334]: the “parameters of lung function” value in data set [7] (after onset of fibrosis, vs vehicle-treated controls) is reported as “significant dose-dependent improvements”. Besides, the pulmonary pathology entry in data set [7] is reported as “significant reduction”.
As to “Fresolimumab: a “pan” TGF-β antibody capable of neutralizing all human isoforms of TGF-β”, the adverse events entry in [8] (human, in vivo) was “bleeding and anemia issues”. Further, in data set [8] (scleroderma patients), the clinical anti-fibrotic efficacy result was “clear clinical anti-fibrotic efficacy”. For the same compound, the “epithelial hyperplasia of the gingiva, bladder and nasal turbinate epithelium” value in [9] is given as “induce an epithelial hyperplasia”.
